{"source": "patent US10729782B2", "about": "“Antibody-drug conjugate produced by binding through linker having hydrophilic structure” (DAIICHI SANKYO COMPANY, LIMITED, priority 2012, dated 2020)", "origin": "cited, not measured here", "key": {"[1]": {"tested_on": "human tumor subcutaneously transplanted mouse model", "conditions": "cited from earlier work"}, "[2]": {"tested_on": "various cancer cells", "conditions": "against various cancer cells, compared with SN-38 and topotecan; cited from earlier work"}, "[3]": {"molecular_target": "T1, topoisomerase I (Homo sapiens, UniProt P11387)", "T1 sequence (P11387 1-765)": "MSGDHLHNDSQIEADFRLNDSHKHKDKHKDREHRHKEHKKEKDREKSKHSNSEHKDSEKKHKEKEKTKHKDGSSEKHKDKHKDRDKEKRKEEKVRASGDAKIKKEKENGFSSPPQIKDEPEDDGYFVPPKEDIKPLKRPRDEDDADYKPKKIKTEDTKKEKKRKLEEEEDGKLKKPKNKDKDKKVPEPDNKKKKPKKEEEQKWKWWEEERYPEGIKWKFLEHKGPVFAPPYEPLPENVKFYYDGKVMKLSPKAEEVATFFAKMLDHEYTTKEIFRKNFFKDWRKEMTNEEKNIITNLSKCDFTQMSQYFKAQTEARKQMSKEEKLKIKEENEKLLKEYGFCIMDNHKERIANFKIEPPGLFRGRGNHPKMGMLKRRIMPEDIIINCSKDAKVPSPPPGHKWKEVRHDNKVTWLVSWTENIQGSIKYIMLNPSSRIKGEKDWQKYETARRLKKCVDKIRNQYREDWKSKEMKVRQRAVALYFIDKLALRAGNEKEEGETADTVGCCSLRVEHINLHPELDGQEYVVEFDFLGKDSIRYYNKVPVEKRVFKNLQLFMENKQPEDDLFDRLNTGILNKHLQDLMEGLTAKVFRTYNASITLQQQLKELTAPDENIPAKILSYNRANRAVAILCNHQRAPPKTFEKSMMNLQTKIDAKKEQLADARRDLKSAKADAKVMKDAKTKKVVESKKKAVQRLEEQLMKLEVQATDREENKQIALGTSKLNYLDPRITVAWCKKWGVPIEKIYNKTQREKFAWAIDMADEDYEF", "conditions": "compared with SN-38 and topotecan; cited from earlier work"}}, "data": [{"smiles": "CC[C@@]1(O)C(=O)OCc2c1cc1n(c2=O)Cc2c-1nc1cc(F)c(C)c3c1c2[C@@H](N)CC3", "note": "[exatecan, (1S,9S)-1-amino-9-ethyl-5-fluoro-2,3-dihydro-9-hydroxy-4-methyl-1H,12H-benzo[de]pyrano[3′,4′:6,7]indolizino[1,2-b]quinolin-10,13(9H,15H)-dione]", "values": [{"measurement": "antitumor effect", "setting": "[1]", "value": "potent antitumor effect"}, {"measurement": "in vitro cytocidal activity", "setting": "[2]", "value": "higher in vitro cytocidal activity"}, {"measurement": "inhibitory activity on topoisomerase I", "setting": "[3]", "value": "higher than SN-38"}]}]}
